Measurements from patent publication US10980889B1 (Revolution Medicines, Inc., priority 2018, dated 2021).

Experiments:
P-P70S6K (T389) = test: Cell based AlphaLISA assay, inhibition of P-P70S6K (T389) in MDA-MB-468 cells (mTORC1 substrate); details: AlphaLisa, two to four hours at 37° C.; for IC50: Homo sapiens, 4 h, read-out: pIC50 for Inhibition of mTORC1 and mTORC2 Substrate Phosphorylation p-P70S6K-(T389) (converted)
Protocol: (§1) Cell Based AlphaLISA Assays For Determining IC50 For Inhibition of P-Akt (S473), P-4E-BP1(T37/46), and P-P70S6K (T389) in MDA-MB-468 Cells
(§2) mTOR Kinase Cellular Assay
(§3) To measure functional activity of mTORC1 and mTORC2 in cells the phosphorylation of 4EBPT (Thr37/46) and P70S6K (Thr389), and AKT1/2/3 (Ser473) was monitored using AlphaLisa SureFire Ultra Kits (Perkin Elmer). […] Incubations were terminated by removal of the assay buffer and addition of lysis buffer provided with the assay kit. Samples were processed according to the manufacturer's instructions. The Alpha signal from the respective phosphoproteinswas measured in duplicate using a microplate reader (Envision, Perkin-Elmer or Spectramax M5, Molecular Devices). Inhibitor concentration response curves were analyzed using normalized IC50 regression curve filling with control based normalization.

P-4E-BP1 (T37/46) = test: Cell based AlphaLISA assay, inhibition of P-4E-BP1 (T37/46) in MDA-MB-468 cells (mTORC1 substrate); details: AlphaLisa, two to four hours at 37° C.; for IC50: Homo sapiens, 4 h, read-out: pIC50 for Inhibition of mTORC1 and mTORC2 Substrate Phosphorylation P-4E-BP1-(T37/46) (converted)
Protocol: as §1, §2, §3

P-Akt (S473) = test: Cell based AlphaLISA assay, inhibition of P-Akt (S473) in MDA-MB-468 cells (mTORC2 substrate); details: AlphaLisa, two to four hours at 37° C.; for IC50: Homo sapiens, 4 h, read-out: pIC50 for Inhibition of mTORC1 and mTORC2 Substrate Phosphorylation p-AKT1/2/3-(S473) (converted)
Protocol: as §1, §2, §3

SMILES | pIC50 for Inhibition of mTORC1 and mTORC2 Substrate Phosphorylation p-P70S6K-(T389) (P-P70S6K (T389)) | pIC50 for Inhibition of mTORC1 and mTORC2 Substrate Phosphorylation P-4E-BP1-(T37/46) (P-4E-BP1 (T37/46)) | pIC50 for Inhibition of mTORC1 and mTORC2 Substrate Phosphorylation p-AKT1/2/3-(S473) (P-Akt (S473)) | IC50 (P-P70S6K (T389)) | IC50 (P-4E-BP1 (T37/46)) | IC50 (P-Akt (S473))
CO[C@H]1C[C@@H]2CC[C@@H](C)[C@@](O)(O2)C(=O)C(=O)N2CCCC[C@H]2C(=O)O[C@H]([C@H](C)C[C@@H]2CC[C@@H](OC(=O)NCCOCCOCCOCCOCCOCCOCCOCCOCCC(=O)NCc3ccc(Cn4nc(-c5ccc6oc(N)nc6c5)c5c(N)ncnc54)cc3)[C@H](OC)C2)C[C@H](N=[N+]=[N-])[C@H](C)/C=C(\C)[C@@H](O)[C@@H](OC)C(=O)[C@H](C)C[C@H](C)/C=C/C=C/C=C/1C [Example 82] | +++ (≥9) | +++ (≥8.5) | − (<6) | – | – | –
CO[C@H]1C[C@@H]2CC[C@@H](C)[C@@](O)(O2)C(=O)C(=O)N2CCCC[C@H]2C(=O)O[C@H]([C@H](C)C[C@@H]2CC[C@@H](OC(=O)NCc3cnc(N4CCN(c5ncc(C(=O)N6CCN(c7ncc(C(=O)N8CCc9cc(Cn%10nc(-c%11cnc%12[nH]ccc%12c%11)c%11c(N)ncnc%11%10)ccc9C8)cn7)CC6)cn5)CC4)nc3)[C@H](OC)C2)CC(=O)[C@H](C)/C=C(\C)[C@@H](O)[C@@H](OC)C(=O)[C@H](C)C[C@H](C)/C=C/C=C/C=C/1C [Example 140] | – | – | – | 10 to 1000 nM | 31.6 to 1000 nM | > 1000 nM
CO[C@H]1C[C@@H]2CC[C@@H](C)[C@@](O)(O2)C(=O)C(=O)N2CCCC[C@H]2C(=O)O[C@H]([C@H](C)C[C@@H]2CC[C@@H](OC(=O)NCCOCCOCCN3C[C@@H]4C[C@H]3CN4CCOCCOCCOCCOCCC(=O)N3CCc4cc(Cn5nc(-c6ccc7oc(N)nc7c6)c6c(N)ncnc65)ccc4C3)[C@H](OC)C2)C[C@@H](O)[C@H](C)/C=C(\C)[C@@H](O)[C@@H](OC)C(=O)[C@H](C)C[C@H](C)/C=C/C=C/C=C/1C [Example 144] | – | – | – | < 1 nM | < 3.16 nM | 3.16 to 31.6 nM
CO[C@H]1C[C@@H]2CC[C@@H](C)[C@@](O)(O2)C(=O)C(=O)N2CCCC[C@H]2C(=O)O[C@H]([C@H](C)C[C@@H]2CC[C@@H](OC(=O)N3CCc4nc(N5CCN(c6ncc(C(=O)N7CCN(c8ncc(C(=O)N9CCc%10cc(Cn%11nc(-c%12cnc%13[nH]ccc%13c%12)c%12c(N)ncnc%12%11)ccc%10C9)cn8)CC7)cn6)CC5)ncc4C3)[C@H](OC)C2)CC(=O)[C@H](C)/C=C(\C)[C@@H](O)[C@@H](OC)C(=O)[C@H](C)C[C@H](C)/C=C/C=C/C=C/1C [Example 142] | – | – | – | 1 to 10 nM | > 1000 nM | > 1000 nM
CO[C@H]1C[C@@H]2CC[C@@H](C)[C@@](O)(O2)C(=O)C(=O)N2CCCC[C@H]2C(=O)O[C@H]([C@H](C)C[C@@H]2CC[C@@H](OC(=O)NCc3cnc(N4CCN(c5ncc(C(=O)NCCOCCOCCOCCOCCC(=O)N6CCc7cc(Cn8nc(-c9ccc%10oc(N)nc%10c9)c9c(N)ncnc98)ccc7C6)c(N)n5)CC4)nc3)[C@H](OC)C2)C[C@@H](OC)[C@H](C)/C=C(\C)[C@@H](O)[C@@H](OC)C(=O)[C@H](C)C[C@H](C)/C=C/C=C/C=C/1C [Example 94] | – | – | – | < 1 nM | < 3.16 nM | < 3.16 nM
CO[C@H]1C[C@@H]2CC[C@@H](C)[C@@](O)(O2)C(=O)C(=O)N2CCCC[C@H]2C(=O)O[C@H]([C@H](C)C[C@@H]2CC[C@@H](OC(=O)NCCOCCOCCOCCOCCOCCOCCOCCOCCC(=O)NCc3ccc(Cn4nc(-c5ccc6oc(N)nc6c5)c5c(N)ncnc54)cc3)[C@H](OC)C2)CC(=O)[C@H](C)/C=C(\C)[C@@H](O)[C@@H](OC)C(=O)[C@H](C)C[C@H](C)/C=C/C=C/C=C/1C [Example 35] | – | – | – | < 1 nM | < 3.16 nM | 3.16 to 31.6 nM
CO[C@H]1C[C@@H]2CC[C@@H](C)[C@@](O)(O2)C(=O)C(=O)N2CCCC[C@H]2C(=O)O[C@H]([C@H](C)C[C@@H]2CC[C@@H](OC(=O)NC3CCN(CC(=O)NCCOCCOCCOCCOCCOCCOCCC(=O)N4CCc5cc(Cn6nc(-c7ccc8oc(N)nc8c7)c7c(N)ncnc76)ccc5C4)CC3)[C@H](OC)C2)C[C@@H](O)[C@H](C)/C=C(\C)[C@@H](O)[C@@H](OC)C(=O)[C@H](C)C[C@H](C)/C=C/C=C/C=C/1C [Example 98] | – | – | – | < 1 nM | < 3.16 nM | 3.16 to 31.6 nM
CO[C@H]1C[C@@H]2CC[C@@H](C)[C@@](O)(O2)C(=O)C(=O)N2CCCC[C@H]2C(=O)O[C@H]([C@H](C)C[C@@H]2CC[C@@H](OC(=O)NCCOCCOCCOCCOCCOCCOCCOCCOCCC(=O)NCc3ccc(Cn4nc(-c5ccc6oc(N)nc6c5)c5c(N)ncnc54)cc3)[C@H](OC)C2)C[C@@H](O)[C@H](C)/C=C(\C)[C@@H](O)[C@@H](OC)C(=O)[C@H](C)C[C@H](C)/C=C/C=C/C=C/1C [Example 36] | – | – | – | < 1 nM | < 3.16 nM | > 1000 nM
CO[C@H]1C[C@@H]2CC[C@@H](C)[C@@](O)(O2)C(=O)C(=O)N2CCCC[C@H]2C(=O)O[C@H]([C@H](C)C[C@@H]2CC[C@@H](OC(=O)NCCOCCOCCOCCOCCOCCOCCOCCOCCC(=O)NCc3ccc(Cn4nc(-c5ccc6oc(N)nc6c5)c5c(N)ncnc54)cc3)[C@H](OC)C2)C[C@H](N=[N+]=[N-])[C@H](C)/C=C(\C)[C@@H](O)[C@@H](OC)C(=O)[C@H](C)C[C@H](C)/C=C/C=C/C=C/1C [Example 38] | – | – | – | < 1 nM | > 1000 nM | > 1000 nM
CO[C@H]1C[C@@H]2CC[C@@H](C)[C@@](O)(O2)C(=O)C(=O)N2CCCC[C@H]2C(=O)O[C@H]([C@H](C)C[C@@H]2CC[C@@H](OC(=O)NC3CCN(CC(=O)NCCOCCOCCOCCOCCOCCOCCC(=O)N4CCc5cc(Cn6nc(-c7ccc8oc(N)nc8c7)c7c(N)ncnc76)ccc5C4)CC3)[C@H](OC)C2)C[C@@H](OC)[C@H](C)/C=C(\C)[C@@H](O)[C@@H](OC)C(=O)[C@H](C)C[C@H](C)/C=C/C=C/C=C/1C [Example 99] | – | – | – | < 1 nM | < 3.16 nM | > 1000 nM
CO[C@H]1C[C@@H]2CC[C@@H](C)[C@@](O)(O2)C(=O)C(=O)N2CCCC[C@H]2C(=O)O[C@H]([C@H](C)C[C@@H]2CC[C@@H](OC(=O)NCCOCCOCCN3CCN(CCOCCOCCOCCOCCC(=O)N4CCc5cc(Cn6nc(-c7ccc8oc(N)nc8c7)c7c(N)ncnc76)ccc5C4)CC3)[C@H](OC)C2)C[C@@H](O)[C@H](C)/C=C(\C)[C@@H](O)[C@@H](OC)C(=O)[C@H](C)C[C@H](C)/C=C/C=C/C=C/1C [Example 143] | – | – | – | < 1 nM | 3.16 to 31.6 nM | > 1000 nM
CO[C@H]1C[C@@H]2CC[C@@H](C)[C@@](O)(O2)C(=O)C(=O)N2CCCC[C@H]2C(=O)O[C@H]([C@H](C)C[C@@H]2CC[C@@H](OC(=O)NCCOCCOCCOCCOCCOCCOCCOCCOCCC(=O)NCCS(=O)(=O)c3ccc(C(=O)N4CCOc5ccc(-c6ccc(N)nc6)cc5C4)c(C)c3)[C@H](OC)C2)CC(=O)[C@H](C)/C=C(\C)[C@@H](O)[C@@H](OC)C(=O)[C@H](C)C[C@H](C)/C=C/C=C/C=C/1C [Example 40] | – | – | – | < 1 nM | < 3.16 nM | 3.16 to 31.6 nM
CO[C@H]1C[C@@H]2CC[C@@H](C)[C@@](O)(O2)C(=O)C(=O)N2CCCC[C@H]2C(=O)O[C@H]([C@H](C)C[C@@H]2CC[C@@H](OC(=O)NCCOCCOCCOCCOCCOCCOCCOCCOCCC(=O)NCCS(=O)(=O)c3ccc(C(=O)N4CCOc5ccc(-c6ccc(N)nc6)cc5C4)c(C)c3)[C@H](OC)C2)C[C@@H](O)[C@H](C)/C=C(\C)[C@@H](O)[C@@H](OC)C(=O)[C@H](C)C[C@H](C)/C=C/C=C/C=C/1C [Example 41] | – | – | – | < 1 nM | < 3.16 nM | > 1000 nM
CO[C@H]1C[C@@H]2CC[C@@H](C)[C@@](O)(O2)C(=O)C(=O)N2CCCC[C@H]2C(=O)O[C@H]([C@H](C)C[C@@H]2CC[C@@H](OC(=O)NCc3cnc(N4CCN(c5ncc(C(=O)NCCOCCOCCOCCOCCC(=O)N6CCc7cc(Cn8nc(-c9ccc%10oc(N)nc%10c9)c9c(N)ncnc98)ccc7C6)cn5)[C@@H](C(=O)O)C4)nc3)[C@H](OC)C2)CC(=O)[C@H](C)/C=C(\C)[C@@H](O)[C@@H](OC)C(=O)[C@H](C)C[C@H](C)/C=C/C=C/C=C/1C [Example 105] | +++ (≥9) | ++ (8.5 > pIC50 ≥ 7.5) | − (<6) | – | – | –
CO[C@H]1C[C@@H]2CC[C@@H](C)[C@@](O)(O2)C(=O)C(=O)N2CCCC[C@H]2C(=O)O[C@H]([C@H](C)C[C@@H]2CC[C@@H](OC(=O)N3CCc4nc(N5CCN(CCOCCN6CCN(c7ncc(C(=O)N8CCc9cc(Cn%10nc(-c%11ccc%12[nH]ccc%12c%11)c%11c(N)ncnc%11%10)ccc9C8)cn7)CC6)CC5)ncc4C3)[C@H](OC)C2)CC(=O)[C@H](C)/C=C(\C)[C@@H](O)[C@@H](OC)C(=O)[C@H](C)C[C@H](C)/C=C/C=C/C=C/1C [Example 131] | – | – | – | < 1 nM | < 3.16 nM | 3.16 to 31.6 nM
